Results reported in patent US20160046592A1, “PHARMACEUTICAL COMPOSITION FOR THE TREATMENT OF DIABETES” (Ajinomoto Co., Inc., priority 2013, published 2016).
Where a name gives a salt, the structure may show the parent alone.

Assays:
[1] = tested on: Rat skeletal muscle-derived L6 myoblasts (differentiated into myotube cells); assay: Evaluation of glycogen accumulation in L6; format: cell-based; conditions: [14C] glycogen from D-[U-C14] glucose, 3 hours incubation, 100% = compound of Example 1 of WO/2011/058154 at 30 μM
Description: The glycogen accumulation activity was evaluated in skeletal muscle cells according to the published article (ANALYTICAL BIOCHEMISTRY, Vol. 261: 159-163, 1998) by the following method. Rat skeletal muscle-derived L6 myoblasts (ATCC) were seeded in a 96-well collagen-coated plate (IWAKI, 4860-010) by using a growth medium (10% FBS-containing α-MEM medium (NACALAI TESQUE, INC., 21444-05)) under a condition of 4×10^4 cells/100 μL/well. After culturing under conditions of 37° C. and 5% CO2 overnight, the medium was replaced with a differentiation medium (2% FBS-containing α-MEM medium), followed by culturing for 3 days to differentiate the myoblasts into myotube cells. On the day of evaluation, the medium was replaced with a glucose-deprived medium (0.1% BSA-containing DMEM medium (Gibco, 11966)). After culturing for 4 hours, the medium was replaced with assay media (0.1% BSA-containing DMEM medium (NACALAI TESQUE, INC., 08456-65)) containing 0.6% DMSO and one of the test compounds at a concentration which was twice the final evaluation concentration at 15 μL/well. Further, an assay medium containing D-[U—C14] glucose (PerkinElmer Inc., NEC042V) at […] was added at 15 μL/well to adjust the final volume to 30 μL/well. Then, the cells were incubated under conditions of 37° C. and 5% CO2 for 3 hours. After the incubation, each medium was removed by suction with an aspirator, and the wells were rinsed with PBS at 200 μL/well twice. Then, 1 N NaOH was added at 50 μL/well, and the cells were lysed by incubation at 60° C. for 10 minutes. After the temperature of the lysed cells was returned to room temperature, each whole cell lysate and […] glycogen (Sigma-Aldrich, G8876) at 5 μL/well were added to a Multiscreen HTS (Millipore, MSFCN6B) to which 100% ethanol was added in advance at 100 μL/well, followed by incubation at 4° C. for 20 minutes. After the incubation, aspiration was conducted by using Multiscreen HTS Vacuum Manifold (Millipore), followed by rinse with 66% ethanol at 200 μL/well twice. After ethanol remaining on the filter was completely removed by drying, MicroScint40 (PerkinElmer Inc.) was added at 50 μL/well, the amount of [14C] glycogen was measured with TopCountNXT (PerkinElmer Inc.). The activity of each test compound was calculated by the following method. Specifically, the relative activity (%) was calculated as 100×(B−A)/(C−A), where A represents a value (cpm) measured for a well not containing the compound but containing only DMSO, B represents a value measured for a well containing the compound and DMSO, and C represents a value measured for a well containing the compound of Example 1 of WO/2011/058154 at a final concentration of 30 μM. EC50 representing the concentration of the compound at which an increase in activity by 50% was caused was calculated using XLfit (idbs).

PPAR-α = target: T1, PPAR-α (Homo sapiens, UniProt Q07869); assay: Measurement of PPAR-α activity (GAL4 luciferase reporter assay in CV-1 cells); format: cell-based; conditions: 100(A/B): A = maximum PPAR-α activity of test compound at 3, 10, 30 and 100 μM, B = activity of the compound of WO/2011/058154 at 100 μM, 18 to 20 hours, read-out: Relative fold induction (%) of PPAR α
T1 construct: expressed in transfected cells; host or cells: CV-1 (African green monkey kidney)
T1 sequence (Q07869 167-468): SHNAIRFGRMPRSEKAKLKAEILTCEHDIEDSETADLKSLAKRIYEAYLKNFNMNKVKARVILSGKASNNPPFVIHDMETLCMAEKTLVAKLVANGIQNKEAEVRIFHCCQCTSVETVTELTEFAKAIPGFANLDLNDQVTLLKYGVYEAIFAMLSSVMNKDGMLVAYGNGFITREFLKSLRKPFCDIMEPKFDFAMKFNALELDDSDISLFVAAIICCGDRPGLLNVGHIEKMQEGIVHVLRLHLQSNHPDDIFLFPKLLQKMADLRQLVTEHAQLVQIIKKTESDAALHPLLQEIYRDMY
Outline: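 CV-1 cells were co-transfected with a UAS×5-TK-Luc reporter and a hGR-GAL4-hPPARα (LBD 167-468aa) expression plasmid, then dosed with compound for 18 to 20 h at 37 °C, with Bright-Glo luciferase read-out. Relative fold induction (%) is the maximum activity at 3, 10, 30 or 100 μM divided by the activity of a WO/2011/058154 reference compound at 100 μM.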

| Emax (PPAR-α) [%] | SMILES | EC50 [1] [nM] |
| --- | --- | --- |
| 14 | COC[C@@H]1CC[C@@H](C(=O)O)N1C(=O)c1cccc(COc2ccc(-c3cc(F)c(F)cc3SC)cc2)c1 [Example 62, (2S,5S)-1-[3-[[4-(4,5-Difluoro-2-methylsulfanyl-phenyl)phenoxy]methyl]benzoyl]-5-(methoxymethyl)pyrrolidine-2-carboxylic Acid] | < 300 |
| 13 | CSc1cc(F)c(F)cc1-c1ccc(OCc2cccc(C(=O)N3C[C@H](N(C)C)C[C@H]3C(=O)O)c2)cc1 [Example 63, (2S,4R)-1-[3-[[4-(4,5-Difluoro-2-methylsulfanyl-phenyl)phenoxy]methyl]benzoyl]-4-(dimethylamino)pyrrolidine-2-carboxylic Acid Trifluoroacetate] | – |
